According to patent publication US6500817B1, “Thiazolyl urea derivatives and their utilization as antiviral agents” (Bayer Aktiengesellschaft, priority 1999, dated 2002):

Compound	melting point [°C]
CCOc1ccc(NC(=O)N(C)c2nc(C)c(S(N)(=O)=O)s2)cc1	196
CNS(=O)(=O)c1sc(N(CCOC)C(=O)Nc2ccc(N3CCOCC3)cc2)nc1C	188
CNS(=O)(=O)c1sc(N(Cc2ccncc2)C(=O)Nc2ccc(N3CCCC3)cc2)nc1C	208
Cc1nc(N(C)C(=O)Nc2ccc(N3CCCC3)cc2)sc1S(=O)(=O)NCC1CC1	205
CCOc1ccc(NC(=O)N(C)c2nc(CC)c(S(=O)(=O)NC)s2)cc1	210
CCOc1ccc(NC(=O)N(Cc2ccccn2)c2nc(C)c(S(=O)(=O)NC)s2)cc1	194
Cc1nc(N(CCN(C)C)C(=O)Nc2ccc(-c3ccccc3)cc2)sc1S(=O)(=O)N(C)C(=O)Nc1ccc(-c2ccccc2)cc1	190
CCOc1ccc(NC(=O)N(CCCN2CCCC2=O)c2nc(C)c(S(=O)(=O)NC)s2)cc1	188
CCOc1ccc(NC(=O)N(C)c2ncc(S(=O)(=O)N(C)C)s2)cc1	194
CCOc1ccc(NC(=O)N(Cc2cccnc2)c2nc(C)c(S(N)(=O)=O)s2)cc1	193
CNS(=O)(=O)c1sc(N(C)C(=O)Nc2ccc(N3CC=CC3)cc2)nc1C	208 to 209
CNS(=O)(=O)c1sc(N(CCCN(C)C)C(=O)Nc2ccc(-c3ccccc3)cc2)nc1C	196
CNS(=O)(=O)c1sc(N(Cn2ccnc2)C(=O)Nc2ccc(-c3ccccc3)cc2)nc1C	205
CCCOc1ccc(NC(=O)N(C)C2=CC(C)=C(S(=O)(=O)NCCOC)C2)cc1	97
CCCOc1ccc(NC(=O)N(CCN(C)C)c2nc(C)c(S(=O)(=O)NC)s2)cc1	165
CNS(=O)(=O)c1sc(N(CCN(C)C)C(=O)Nc2ccc(N3CCOCC3)cc2)nc1C	196
CC(=O)Nc1cccc(Oc2ccc(NC(=O)N(C)c3nc(Cl)c(S(=O)(=O)N(C)C)s3)cc2)c1	219
C=C(Nc1ccc(N2CCOCC2)cc1)Nc1nc(C)c(S(=O)(=O)N(C)C)s1	188
COCCN(C)S(=O)(=O)c1sc(N(C)C(=O)Nc2ccc(N3CCOCC3)cc2)nc1C	156
Cc1nc(N(C)C(=O)Nc2ccc(N3CCOCC3)cc2)sc1S(=O)(=O)N(C)CCn1ccnn1	172
CCOc1ccc(NC(=O)N(C)c2nc(C)c(S(=O)(=O)NCc3ccc4c(c3)OCO4)s2)cc1	178
CCOc1ccc(NC(=O)N(CCCCNC(=O)OC(C)(C)C)c2nc(C)c(S(=O)(=O)N(C)C)s2)cc1	152
CCOc1ccc(NC(=O)N(Cc2ccccc2)c2nc(C)c(S(=O)(=O)NC3CC3)s2)cc1	178

Other lines, results leading:

melting point [°C]	Compound
154	CCCN(C(=O)Nc1ccc(OCC)cc1)c1nc(C)c(S(=O)(=O)NC)s1
150	CCOc1ccc(NC(=O)N(CC2CCCO2)c2nc(C)c(S(=O)(=O)NC)s2)cc1 (centres unmarked)
146	CCOc1ccc(NC(=O)N(CCCNC(=O)OC(C)(C)C)c2nc(C)c(S(=O)(=O)NC)s2)cc1
144	CCCN(C(=O)Nc1ccc(-c2ccccc2)cc1)c1nc(C)c(S(N)(=O)=O)s1
162	CCOc1ccc(NC(=O)N(CCN(C)C)c2nc(C)c(S(N)(=O)=O)s2)cc1
193 to 195	Cc1nc(N(C)C(=O)Nc2ccc(N3CCC3)cc2)sc1S(=O)(=O)N(C)C
176	Cc1nc(N(C)C(=O)Nc2ccc(-c3ccccc3)cc2)sc1S(=O)(=O)NCC1CC1
185	CCOc1ccc(NC(=O)N(CCCN(C)C)c2nc(C)c(S(=O)(=O)NC)s2)cc1
196	Cc1nc(N(C)C(=O)Nc2ccc(N3CCSCC3)cc2)sc1S(=O)(=O)N(C)C
147	CCCOc1ccc(NC(=O)N(C)c2nc(C)c(S(=O)(=O)N(C)C)s2)cc1
196	CN(C(=O)Nc1ccc(N2CCOCC2)c(F)c1)c1nc(Cl)c(S(=O)(=O)N(C)C)s1
137	CCOc1ccc(NC(=O)Nc2nc(C)c(S(=O)(=O)NCCOC)s2)cc1
